Results: ChEMBL document CHEMBL1132606, “Use of a pharmacophore model for the design of EGFR tyrosine kinase inhibitors: isoflavones and 3-phenyl-4(1H)-quinolones” (J Med Chem, 1999)

How the values were obtained:
[1] = biological target: T1, Epidermal growth factor receptor (Homo sapiens, UniProt P00533); experiment: Inhibition of Epidermal growth factor receptor
[2] = biological target: Protein kinase C alpha type (Homo sapiens, UniProt P17252); experiment: Inhibition of Protein kinase C alpha
[3] = biological target: Platelet-derived growth factor receptor (Homo sapiens, UniProt P09619+P16234); experiment: Inhibition of Platelet-derived growth factor receptor-dependent phosphorylation; type: protein-complex assay
[4] = biological target: Proto-oncogene tyrosine-protein kinase Src (Homo sapiens, UniProt P12931); experiment: Inhibition of p60 c-Src tyrosine kinase
[5] = biological target: T1, Epidermal growth factor receptor; experiment: Inhibition of Epidermal growth factor receptor-dependent phosphorylation
[6] = biological target: Tyrosine-protein kinase ABL (Homo sapiens, UniProt P00519+P42684); experiment: Inhibition of v-Abl tyrosine kinase; type: protein assay

T1 sequence (P00533 whole entry): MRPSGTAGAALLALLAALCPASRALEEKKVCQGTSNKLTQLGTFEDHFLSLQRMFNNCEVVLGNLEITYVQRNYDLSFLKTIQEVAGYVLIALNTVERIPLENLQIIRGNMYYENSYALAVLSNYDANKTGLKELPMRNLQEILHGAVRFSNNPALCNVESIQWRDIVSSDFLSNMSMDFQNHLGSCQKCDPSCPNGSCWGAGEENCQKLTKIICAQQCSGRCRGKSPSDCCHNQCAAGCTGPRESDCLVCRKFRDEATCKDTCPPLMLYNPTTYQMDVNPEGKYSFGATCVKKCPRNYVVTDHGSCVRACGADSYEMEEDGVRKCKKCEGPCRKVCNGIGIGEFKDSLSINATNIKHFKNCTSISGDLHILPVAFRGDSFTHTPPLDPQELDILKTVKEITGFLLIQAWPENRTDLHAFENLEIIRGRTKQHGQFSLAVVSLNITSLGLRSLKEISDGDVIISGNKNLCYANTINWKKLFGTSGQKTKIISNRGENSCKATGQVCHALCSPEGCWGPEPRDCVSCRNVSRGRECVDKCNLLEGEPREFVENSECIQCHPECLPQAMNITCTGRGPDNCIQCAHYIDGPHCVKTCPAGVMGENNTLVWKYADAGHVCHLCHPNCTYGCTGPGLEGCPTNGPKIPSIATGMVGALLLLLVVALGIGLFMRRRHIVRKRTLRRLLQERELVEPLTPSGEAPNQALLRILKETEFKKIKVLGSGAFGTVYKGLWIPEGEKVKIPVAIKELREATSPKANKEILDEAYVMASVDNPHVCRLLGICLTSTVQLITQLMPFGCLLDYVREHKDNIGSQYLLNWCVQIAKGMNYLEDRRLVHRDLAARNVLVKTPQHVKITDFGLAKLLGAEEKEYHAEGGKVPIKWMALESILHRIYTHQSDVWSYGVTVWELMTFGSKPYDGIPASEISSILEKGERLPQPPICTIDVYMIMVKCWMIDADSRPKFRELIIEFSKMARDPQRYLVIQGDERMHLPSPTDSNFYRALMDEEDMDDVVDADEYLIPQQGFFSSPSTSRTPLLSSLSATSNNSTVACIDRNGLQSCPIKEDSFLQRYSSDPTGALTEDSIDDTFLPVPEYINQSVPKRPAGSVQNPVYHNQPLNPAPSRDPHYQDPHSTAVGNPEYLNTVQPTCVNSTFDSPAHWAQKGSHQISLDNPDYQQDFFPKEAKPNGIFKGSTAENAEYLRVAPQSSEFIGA
Sequence of Proto-oncogene tyrosine-protein kinase Src (P12931 2-536 limits assumed): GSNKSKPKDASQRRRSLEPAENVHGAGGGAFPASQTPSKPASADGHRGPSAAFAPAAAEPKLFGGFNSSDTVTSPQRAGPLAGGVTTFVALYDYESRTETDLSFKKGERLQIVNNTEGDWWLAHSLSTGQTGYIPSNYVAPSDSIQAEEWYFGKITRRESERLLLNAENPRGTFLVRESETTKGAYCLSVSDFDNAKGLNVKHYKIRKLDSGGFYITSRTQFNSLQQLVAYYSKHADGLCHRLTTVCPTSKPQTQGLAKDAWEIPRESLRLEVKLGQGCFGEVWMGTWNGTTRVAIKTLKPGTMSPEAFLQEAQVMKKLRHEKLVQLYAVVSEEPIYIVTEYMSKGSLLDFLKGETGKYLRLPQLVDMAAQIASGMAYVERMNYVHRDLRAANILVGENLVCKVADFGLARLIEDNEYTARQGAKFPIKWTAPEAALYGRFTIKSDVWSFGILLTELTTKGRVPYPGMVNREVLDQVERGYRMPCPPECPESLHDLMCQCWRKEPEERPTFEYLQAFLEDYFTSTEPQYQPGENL

Row | IC50 [1] | IC50 [2] | IC50 [3] | IC50 [4] | IC50 [5] | IC50 [6] | Structure (SMILES)
1 | 58.8 µM | – | – | – | – | – | O=c1c(-c2cccc(Cl)c2)coc2cc(O)ccc12
2 | – | > 100 µM | > 10 µM | 2.7 µM | – | – | COc1cc2ncnc(Nc3cccc(Cl)c3)c2cc1OC [TYRPHOSTIN AG-1478]
3 | 4 µM | – | > 10 µM | – | 1.5 µM | – | COc1cc(O)c2c(=O)c(-c3cccc(Cl)c3)cn(CCc3ccccc3)c2c1
4 | > 100 µM | – | – | – | – | – | Oc1c(-c2cccc(Cl)c2)cnc2ccccc12
5 | 500 µM | – | > 10 µM | – | > 100 µM | – | COc1cc(OC)c2c(=O)c(-c3cccc(Cl)c3)coc2c1
6 | – | > 100 µM | – | > 10 µM | – | > 10 µM | O=c1c(-c2ccc(O)cc2)coc2cc(O)cc(O)c12 [GENISTEIN]
7 | 0.095 µM | > 100 µM | > 10 µM | > 100 µM | 12 µM | 20 µM | O=c1c(-c2cccc(Cl)c2)coc2cc(O)cc(O)c12
8 | 1.27 µM | > 100 µM | > 10 µM | > 100 µM | > 100 µM | > 100 µM | COc1cc(O)c2c(=O)c(-c3cccc(Cl)c3)coc2c1
9 | – | > 100 µM | > 10 µM | > 10 µM | – | > 10 µM | COC(=O)Cn1cc(-c2cccc(Cl)c2)c(=O)c2c(O)cc(OC)cc21
10 | 0.038 µM | > 100 µM | > 10 µM | > 100 µM | 6 µM | > 100 µM | COc1cc(O)c2c(O)c(-c3cccc(Cl)c3)cnc2c1
11 | 0.008 µM | > 100 µM | > 10 µM | 8 µM | 2 µM | > 10 µM | Oc1cc(O)c2c(O)c(-c3cccc(Cl)c3)cnc2c1
12 | 0.17 µM | > 100 µM | > 10 µM | > 10 µM | 3 µM | > 10 µM | COc1cc(O)c2c(=O)c(-c3cccc(Cl)c3)cn(C)c2c1
